Results reported in patent US12503440B2, “Nitroxoline derivative, preparation method therefor, and use thereof” (Jiangsu Yahong Meditech Co., Ltd., priority 2020, dated 2025).
Converted amounts (≈) assume the structure as drawn.

How the values were obtained:
Assay type in all cases: cell-based
[1] = system: Endothelial cell line HUVEC; assay: Inhibitory activity on cells, CellTiter-Glo viability, 72 h; conditions: Homo sapiens
From the text: (§1) • HUVEC (purchased from Allcells Biological Technology (Shanghai) Co., Ltd.); UM-UC-3 (ATCC); LNCaP Clone FGC (ATCC); RM-1 (purchased from Nanjing Cobioer Biosciences Co., Ltd.) 2. Reagents • Endothelial cell complete medium (Allcells, H-004) • Medium RPMI1640 (ATCC, 30-2001) • Medium EMEM (ATCC, 30-2003) • Medium DMEM (Gibco, 12430-054) • Fetal bovine serum (Gibco, 10091148) • Penicillin-streptomycin double anti-body (Gibco, S110JV) • DPBS (Gibco, 14190-144) • CellTiter-Glo® kit (Promega, G7573) • Trypsin (0.25%), phenol red (Gibco, 25200-056) • DMSO (Sigma, D2650) 3. Instruments • Biological safety cabinet (Suzhou Antai Airtech Co., Ltd., BSC-1300A II) • Inverted microscope (Nikon, CKX53) • Automated cell counter (Life Technologies, countess II) • Multifunctional microplate reader (Biotek, H1FM) • Shaker (Hangzhou Allsheng Instruments Co., Ltd., OS-100) • GraphPad Prism 5.0 software • XLFIT 5.3 (Inforstack Shanghai Co., Ltd.) 4. Test Method
(§2) In this test method, the following experiments were carried out in a biological safety cabinet, and the specific steps are as follows: • (1) On the first day, the cells were seeded in a 96-well plate, and the previous medium was poured off. 5 mL of DPBS was added to wash the cells, and then removed by a pipette. Then, 1 mL of trypsin (0.25%) was added, and the plate was placed in a cell culture incubator at 37° C., 5% CO2 for digestion, and taken out after about 2 to 5 minutes. New corresponding medium was added, and pipetted to resuspend the cells evenly, and the cells were then counted with an automated cell counter.
(§3) The digestion was observed using an inverted microscope.
(§4) Regarding to HUVEC, the medium used was endothelial cell complete medium; regarding to UM-UC-3, the medium used was 89v % EMEM+10v % fetal bovine serum+1 v % penicillin-streptomycin double anti-body; regarding to LNcaP Clone FGC, the medium used was 89v % RPM11640+10v % fetal bovine serum+1 v % penicillin-streptomycin double anti-body; and regarding to RM-1, the medium used was 89v % DMEM+10v % fetal bovine serum+1v % penicillin-streptomycin double anti-body. • (2) HUVEC cells were seeded in columns 1 to 11 of a 96-well plate (Corning, Cat. No. 3610) at a density of 2000 cells per well in 100 μL of medium, and the medium free of cell was added to the wells of column 12. The other three types of cells were also seeded, wherein UM-UC-3 and RM-1 cells were seeded at a density of 3000 cells per well, and LNCap Clone FGC cells were seeded at a density of 5000 cells per well. Then, the plate was placed in an incubator at 37° C., 5% CO2 for 24 hours. • (3) On the second day, the compounds of the present invention and the reference drug nitroxoline (obtained according to the preparation method disclosed in the prior art) were diluted in gradient (2.5 folds, started at 100 μmol) to obtain 8 dose points (there were a total of 8 columns of wells; the first column of wells had the highest concentration, the concentration decreased in turn, and the last column of wells had the lowest concentration). 10 uL of the compound diluted in gradient was added to the 100 μL of cells in column 1 to column 10 with an 8-channel pipette. 10 μL of the corresponding medium containing 0.33v % DMSO was added to column 11 and column 12. The plate was incubated in an incubator at 37° C., 5% CO2 for 72 hours (note: column 11 was used as MAX well with cells and no compounds; and column 12 was used as MIN well with no cells and no compounds). • (4) After treating with the compounds of the present invention for 72 hours, the cell viability detection reagents in the above CellTiter-Glo® kit were added to the 96-well plate at 50 μL per well according to the instructions. […]

[2] = system: Bladder cancer cell line UM-UC-3; assay: Inhibitory activity on cancer cells, CellTiter-Glo viability, 72 h; conditions: Homo sapiens, UMUC3, UM-UC-3, 72 h
From the text: as §1, §2, §3, §4

[3] = system: Mouse prostate cancer cell line RM-1; assay: as above; conditions: RM-1, 72 h
From the text: as §1, §2, §3, §4

[4] = system: Prostate cancer cell line LNcaP Clone FGC; assay: as above; conditions: Homo sapiens
From the text: as §1, §2, §3, §4

[5] = system: Acinetobacter baumannii; assay: Bacteriostatic activity, micro broth dilution MIC (CLSI); conditions: 20 hours; for MIC50 / MIC90: clinical strains (carbapenem-resistant), CAMHB; for MIC50: read-out: Acinetobacter baumannii Clinical strain MIC50; for MIC90: read-out: Acinetobacter baumannii Clinical strain MIC90; for MIC: standard strain ATCC19606, CAMHB
Experimental: (§5) The purpose of this test is to determine the bacteriostatic activity of the compounds of the present invention against a representative panel of strains (Gram-negative bacteria: […] ATCC 25922, Acinetobacter baumannii ATCC 19606; Gram-positive bacteria: Staphylococcus aureus ATCC29213). Bacteriostatic activity was determined by minimum inhibitory concentration (MIC), MIC50, MIC90. This test was entrusted to Shanghai Junj Lab Co., Ltd. Except for the test drugs, all other test materials were provided by Shanghai Junj Lab Co., Ltd.
(§6) The tested bacteria were several strains of clinically isolated carbapenem-resistant Escherichia coli, several strains of carbapenem-resistant Acinetobacter baumannii, several strains of methicillin-resistant Staphylococcus aureus, and several strains of sensitive Staphylococcus aureus. Duplicate strains isolated from the same patient were eliminated. There were also three quality control strains Escherichia coli ATCC 25922, Acinetobacter baumannii ATCC 19606, and Staphylococcus aureus ATCC 29213. The activity test of each compound was carried out on one or more strains of each of the above test bacteria.
(§7) According to the recommendations of relevant documents of the American Clinical and Laboratory Standards Institute (CLSI), the micro broth dilution method was used to determine the MIC of the compounds of the present invention against clinically isolated strains. The culture solution free of drug was used as the test bacteria positive control, the culture solution free of bacterial solution was used as the drug negative control, and the culture solution free of drug solution and bacterial solution was used as the blank control. • 4.1 Formulation of antibacterial drug: All the compounds of the present invention were dissolved in DMSO. The drug concentration range was 128 mg/L-0.06 mg/L. Specific method: The compounds of the present invention were successively diluted by 1:1 with DMSO to obtain an intermediate series with a range of 25600 mg/L-12.5 mg/L. 30 μL of solution from each tube of the intermediate series of each compound was added to a 3 mL/tube series of single broth tube, and mixed well to obtain an intermediate series with a range of 256 mg/L to 0.125 mg/L. The diluted series solution was added to the drug susceptibility plate line by line, 50 μL of solution per well. All ranges became investigated ranges after being mixed with an equal volume of bacterial solution: 128-0.06 mg/L. • 4.2 Culture medium: The drug susceptibility test used cation adjusted Mueller-Hinton broth (CAMHB). • 4.3 Amount of inoculum: The test bacteria cultured overnight were adjusted to 0.5 McFarland turbidity by the direct colony suspension method, and diluted 100 folds, the final inoculum amount was 10^5 CFU/mL. • 4.4 Culture conditions: The test bacteria were cultured at 35±2° C. for 20 hours in air. 5. Interpretation and Judgment of Results
(§8) The drug susceptibility test results were interpretated by reference to CLSI 2019 edition M100 29th edition criteria.
(§9) The results of drug susceptibility test were statistically analyzed by WHONET version 5.6 software.
(§10) The culture solution free of bacterial solution was used as the drug negative control, and the culture solution free of drug solution and bacterial solution was used as the blank control, wherein no bacteria grew in both solutions.

[6] = system: Escherichia coli; assay: as above; conditions: 20 hours; for MIC50 / MIC90: clinical strains (carbapenem-resistant), CAMHB; for MIC50: read-out: Escherichia coli Clinical strain MIC50; for MIC90: read-out: Escherichia coli Clinical strain MIC90; for MIC: standard strain ATCC25922, CAMHB
Experimental: as §5, §6, §7, §8, §9, §10

[7] = system: Staphylococcus aureus; assay: as above; conditions: 20 hours; for MIC50 / MIC90: clinical strains (methicillin-resistant and sensitive), CAMHB; for MIC50: read-out: Staphylococcus aureus Clinical strain MIC50; for MIC90: read-out: Staphylococcus aureus Clinical strain MIC90; for MIC: standard strain ATCC29213, CAMHB
Experimental: as §5, §6, §7, §8, §9, §10

IC50 [2] [nM] | IC50 [3] [nM] | IC50 [4] [nM] | MIC50 [5] [µg/mL] | MIC90 [5] [µg/mL] | MIC50 [6] [µg/mL] | MIC90 [6] [µg/mL] | MIC [6] [µg/mL] | MIC50 [7] [µg/mL] | MIC90 [7] [µg/mL] | MIC [7] [µg/mL] | MIC [5] [µg/mL] | Structure (SMILES) | IC50 [1] [nM]
2000 | 3100 | 4900 | 4 (≈ 17.8 µM) | 8 (≈ 35.6 µM) | 8 (≈ 35.6 µM) | 8 (≈ 35.6 µM) | 8 (≈ 35.6 µM) | 4 (≈ 17.8 µM) | 4 (≈ 17.8 µM) | – | – | O=[N+]([O-])c1ccc(O)c2nccc(Cl)c12 [Example 2, 4-chloro-5-nitroquinolin-8-ol] | 3000
500 | 1000 | 1700 | 128 (≈ 481 µM) | 128 (≈ 481 µM) | 128 (≈ 481 µM) | 128 (≈ 481 µM) | – | 4 (≈ 15 µM) | 8 (≈ 30 µM) | 4 (≈ 15 µM) | – | O=[N+]([O-])c1ccc(O)c2nccc(-c3ccccc3)c12 [Example 9, 5-nitro-4-phenylquinolin-8-ol] | 1300
1600 | 2000 | 1200 | – | – | – | – | – | – | – | – | – | CC1CCCCN1c1ccnc2c(O)ccc([N+](=O)[O-])c12 (stereo not drawn) [Example 13, 4-(2-methylpiperidin-1-yl)-5-nitroquinolin-8-ol] | 2500
1500 | 2100 | 1800 | 32 (≈ 145 µM) | 32 (≈ 145 µM) | 32 (≈ 145 µM) | 32 (≈ 145 µM) | 32 (≈ 145 µM) | 4 (≈ 18.2 µM) | 4 (≈ 18.2 µM) | 4 (≈ 18.2 µM) | 32 (≈ 145 µM) | COc1ccnc2c(O)ccc([N+](=O)[O-])c12 [Example 16, 4-methoxy-5-nitroquinolin-8-ol] | –
2400 | 900 | 1900 | 8 (≈ 34.7 µM) | 16 (≈ 69.5 µM) | 8 (≈ 34.7 µM) | 16 (≈ 69.5 µM) | 8 (≈ 34.7 µM) | 2 (≈ 8.69 µM) | 4 (≈ 17.4 µM) | 4 (≈ 17.4 µM) | 16 (≈ 69.5 µM) | O=[N+]([O-])c1ccc(O)c2nccc(C3CC3)c12 [Example 19, 4-cyclopropyl-5-nitroquinolin-8-ol] | 1300
4000 | 2700 | 2700 | – | – | – | – | – | – | – | – | – | CCOC(=O)N1CCN(c2ccnc3c(O)ccc([N+](=O)[O-])c23)CC1 [Example 22, ethyl 4-(8-hydroxy-5-nitroquinolin-4-yl)piperazine-1-carboxylate] | 3000
1700 | 1000 | 800 | 32 (≈ 124 µM) | 64 (≈ 248 µM) | 32 (≈ 124 µM) | 64 (≈ 248 µM) | 64 (≈ 248 µM) | 4 (≈ 15.5 µM) | 4 (≈ 15.5 µM) | 4 (≈ 15.5 µM) | 32 (≈ 124 µM) | O=[N+]([O-])c1ccc(O)c2nccc(C3CCCC3)c12 [Example 24, 4-cyclopentyl-5-nitroquinolin-8-ol] | 1400
9200 | 4300 | 5100 | – | – | – | – | – | – | – | – | – | O=[N+]([O-])c1ccc(O)c2ncccc12 [Nitroxoline, 5-nitro-8-hydroxyquinoline] | 4500
